Results: PMC12108080, “Sodium butyrate inhibits the expression of virulence factors in Vibrio cholerae by targeting ToxT protein” (mSphere, 2025)

How the values were obtained:
ToxT [1] = molecular target: T1, ToxT (Vibrio cholerae, UniProt P0C6D6); test: intrinsic tryptophan fluorescence quenching, logarithmic plot; format: binding
T1 construct: gene tcpN; 6xHis fusion from pHIS-Tev plasmid, expressed in E. coli BL21(DE3), Ni-agarose purified

ToxT [2] = molecular target: T1, ToxT; format: binding; conditions: 1.0 µM ToxT pre-incubated with TB (40 mM) 20 min, 1 nM PtcpA DNA, pH 7.5
[3] = molecular target: T2, ToxT (His6/NBP-ToxT fusion) (Vibrio cholerae N16961?) (UniProt P0C6D6); test: competition; conditions: 10 mM Tris-HCl pH 7.5, 100 mM KCl, 1 mM EDTA, 1 mM DTT, 200 µg/mL BSA, 10% glycerol, […] (temperature not stated)
T2 sequence: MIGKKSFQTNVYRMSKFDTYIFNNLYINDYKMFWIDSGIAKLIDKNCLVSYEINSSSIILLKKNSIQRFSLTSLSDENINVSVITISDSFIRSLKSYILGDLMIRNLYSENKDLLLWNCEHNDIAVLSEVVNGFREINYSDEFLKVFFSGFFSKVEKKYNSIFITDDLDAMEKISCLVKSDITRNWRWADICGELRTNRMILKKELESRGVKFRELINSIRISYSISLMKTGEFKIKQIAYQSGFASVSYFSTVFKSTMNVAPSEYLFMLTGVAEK

In the case of `CCCC(=O)O` [SB, sodium butyrate], the Kd (ToxT [1]) is reported as 2.6 ± 0.03 mM.
In the case of `CCCC(=O)OCC(COC(=O)CCC)OC(=O)CCC` [TB, tributyrate], the “inhibition of DNA binding” value (ToxT [2]) is reported as “tributyrate (TB), was used, and it showed no inhibition on ToxT-DNA binding”.
In the case of “ATTGCTGAGCTAAAGGGGCTGGAAATTCAATGTCATCAGGCTGTTGCCAAGTGACGCGATTCAGTGCGGCTAAATAGAGCGAAGTTAATTGATTCATACTATTATTCAATTTGACGCTTTACCCGATTACCCTAGCTACCTGCAATACCA (double strand) [nonspecific competitor DNA]”, the binding [3] is reported as “no binding”.
